Assay results reported in ChEMBL document CHEMBL5726331, “Pyridinone and pyrimidinone derivatives as factor Xia” (2017).

Target: Coagulation factor XI (Homo sapiens, UniProt P03951)
Experiment: Enzyme Activity Assay: Human Factor XIa (Haematologic Technologies Inc.) activity was measured at an enzyme concentration of 0.1 U/mL in 150 mM NaCl, 5 mM KCl, 1 mg/mL PEG6000, 50 mM HEPES-NaOH (pH7.4) with 300 μM S-2366 (pyroGlu-Pro-Arg-pNA, Chromogenix).

Sequence of Coagulation factor XI (P03951 19-387 limits assumed): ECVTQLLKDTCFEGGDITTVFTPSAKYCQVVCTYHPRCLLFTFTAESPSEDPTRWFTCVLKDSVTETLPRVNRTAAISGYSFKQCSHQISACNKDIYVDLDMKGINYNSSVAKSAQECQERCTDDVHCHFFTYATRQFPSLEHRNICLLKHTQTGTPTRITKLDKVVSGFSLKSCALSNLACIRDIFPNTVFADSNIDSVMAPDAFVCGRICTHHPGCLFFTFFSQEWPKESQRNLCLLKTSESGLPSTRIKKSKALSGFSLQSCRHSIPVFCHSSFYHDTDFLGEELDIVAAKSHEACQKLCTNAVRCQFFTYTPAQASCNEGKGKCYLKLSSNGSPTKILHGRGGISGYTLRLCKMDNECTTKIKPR
Sequence of Coagulation factor XI (P03951 388-625 limits assumed): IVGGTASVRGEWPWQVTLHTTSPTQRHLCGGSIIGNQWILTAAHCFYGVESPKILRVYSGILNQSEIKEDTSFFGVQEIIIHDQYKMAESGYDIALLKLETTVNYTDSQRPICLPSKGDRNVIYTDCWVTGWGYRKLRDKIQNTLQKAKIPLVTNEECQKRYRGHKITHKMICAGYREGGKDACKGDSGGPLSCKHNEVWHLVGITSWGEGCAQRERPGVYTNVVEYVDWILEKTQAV

IC50 [nM]	Structure (SMILES)
40	COC(=O)Nc1ccc(-c2[nH]c([C@H](C)NC(=O)/C=C/c3cc(Cl)ccc3-n3cnnn3)nc2Cl)cc1
130	COC(=O)Nc1ccc(-c2[nH]c(CNC(=O)/C=C/c3cc(Cl)ccc3-n3cnnn3)nc2Cl)cc1
